Assay results reported in PubChem BioAssay (NCI).
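A five-concentration, 48-hour dose response in 96-well plates underlies each endpoint, interpolated linearly between surrounding concentrations. Abbreviation: GI50, concentration required for 50% inhibition of growth. TGI: total growth inhibition.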

Experiments:
Test in all cases: NCI anticancer screen, dose series, 48 h
[1] = test system: K-562 leukemia
[2] = test system: LOX IMVI melanoma
[3] = test system: UACC-62 melanoma
[4] = test system: UACC-257 melanoma
[5] = test system: HS 578T breast
[6] = test system: MCF7 breast
[7] = test system: SK-MEL-2 melanoma
[8] = test system: DU-145 prostate
[9] = test system: MALME-3M melanoma
[10] = test system: HCC-2998 colon
[11] = test system: SW-620 colon
[12] = test system: UO-31 renal
[13] = test system: HT29 colon
[14] = test system: HCT-116 colon
[15] = test system: SN12C renal
[16] = test system: NCI-H460 lung
[17] = test system: MDA-MB-468 breast
[18] = test system: NCI-H23 lung
[19] = test system: CCRF-CEM leukemia
[20] = test system: PC-3 prostate
[21] = test system: SF-295 CNS
[22] = test system: 786-0 renal
[23] = test system: SK-MEL-28 melanoma
[24] = test system: NCI-H226 lung
[25] = test system: U251 CNS
[26] = test system: ACHN renal
[27] = test system: A549 NSCLC
[28] = test system: MOLT-4 leukemia
[29] = test system: EKVX NSCLC
[30] = test system: OVCAR-3 ovarian
[31] = test system: COLO 205 colon
[32] = test system: RXF 393 renal
[33] = test system: M14 melanoma
[34] = test system: IGROV1 ovarian
[35] = test system: SNB-75 CNS
[36] = test system: OVCAR-4 ovarian
[37] = test system: HOP-92 NSCLC
[38] = test system: NCI-H522 lung
[39] = test system: RPMI-8226 leukemia
[40] = test system: SK-OV-3 ovarian
[41] = test system: SF-539 CNS
[42] = test system: CAKI-1 renal
[43] = test system: SR leukemia
[44] = test system: A498 renal
[45] = test system: MDA-MB-231 breast
[46] = test system: SF-268 CNS
[47] = test system: HCT-15 colon
[48] = test system: BT-549 breast
[49] = test system: OVCAR-5 ovarian
[50] = test system: KM12 colon
[51] = test system: HL-60(TB) leukemia
[52] = test system: HOP-62 NSCLC
[53] = test system: SK-MEL-5 melanoma
[54] = test system: MDA-MB-435
[55] = test system: T-47D breast
[56] = test system: TK-10 renal
[57] = test system: SNB-19 CNS
[58] = test system: OVCAR-8 ovarian

Compound `CC1CCCCN1CCCNC(=O)N/C(N)=N/c1nc2ccccc2s1` (stereo unspecified) has a GI50 [1] of 15.8 µM, a TGI [1] of 46.7 µM and a GI50 [2] of 13.9 µM. The TGI [2] was 27.7 µM, the GI50 [3] was 16.8 µM and the TGI [3] was 31.7 µM. For the same compound, the GI50 [4] was 15.8 µM, the TGI [4] was 30.7 µM and the GI50 [5] was 15.1 µM. It also gave a TGI [5] of 50.1 µM, a GI50 [6] of 15 µM and a TGI [6] of 31.7 µM. For the same compound, the GI50 [7] was 16 µM, the TGI [7] was 31.1 µM and the GI50 [8] was 46.7 µM. It also gave a TGI [8] greater than 100 µM, a GI50 [9] of 13.9 µM and a TGI [9] of 27.1 µM. For the same compound, the GI50 [10] was 15.2 µM, the TGI [10] was 29.2 µM and the GI50 [11] was 16.2 µM. The TGI [11] was 34.1 µM, the GI50 [12] was 10.2 µM and the TGI [12] was 25.2 µM. It also gave a GI50 [13] of 15.3 µM, a TGI [13] of 46.2 µM and a GI50 [14] of 15 µM. For the same compound, the TGI [14] was 28.9 µM, the GI50 [15] was 36.7 µM and the TGI [15] was greater than 100 µM. It also gave a GI50 [16] of 19.1 µM, a TGI [16] of 40.6 µM and a GI50 [17] of 14.7 µM. For the same compound, the TGI [17] was 30.7 µM, the GI50 [18] was 27 µM and the TGI [18] was greater than 100 µM. For the same compound, the GI50 [19] was 19.6 µM, the TGI [19] was 57.8 µM and the GI50 [20] was 20 µM. For the same compound, the TGI [20] was greater than 100 µM, the GI50 [21] was 16 µM and the TGI [21] was 30.7 µM. For the same compound, the GI50 [22] was 17.2 µM, the TGI [22] was 32.7 µM and the GI50 [23] was 16.6 µM. The TGI [23] was 30.5 µM, the GI50 [24] was 27.7 µM and the TGI [24] was greater than 100 µM. For the same compound, the GI50 [25] was 17 µM, the TGI [25] was 39.3 µM and the GI50 [26] was 19.1 µM. For the same compound, the TGI [26] was 48.1 µM, the GI50 [27] was 21 µM and the TGI [27] was 57.7 µM. It also gave a GI50 [28] of 12.1 µM, a TGI [28] of 51.9 µM and a GI50 [29] of 27.9 µM. It also gave a TGI [29] greater than 100 µM, a GI50 [30] of 24 µM and a TGI [30] greater than 100 µM. The GI50 [31] was 14 µM, the TGI [31] was 28.2 µM and the GI50 [32] was 10.2 µM. For the same compound, the TGI [32] was 33.3 µM, the GI50 [33] was 15.8 µM and the TGI [33] was 30.5 µM. For the same compound, the GI50 [34] was 21.3 µM, the TGI [34] was 76.7 µM and the GI50 [35] was 7.4 µM. The TGI [35] was 55.2 µM, the GI50 [36] was 63.1 µM and the TGI [36] was greater than 100 µM. For the same compound, the GI50 [37] was 4.96 µM, the TGI [37] was 41.6 µM and the GI50 [38] was 18.3 µM. For the same compound, the TGI [38] was 43.8 µM, the GI50 [39] was 17.4 µM and the TGI [39] was 51.3 µM. For the same compound, the GI50 [40] was 19.7 µM, the TGI [40] was 89.1 µM and the GI50 [41] was 15.8 µM. The TGI [41] was 30.1 µM, the GI50 [42] was 13.3 µM and the TGI [42] was 28 µM. The GI50 [43] was 18.7 µM, the TGI [43] was 58.5 µM and the GI50 [44] was 17 µM. The TGI [44] was 38.2 µM, the GI50 [45] was 14.8 µM and the TGI [45] was 40.7 µM. The GI50 [46] was 21.1 µM, the TGI [46] was 79.8 µM and the GI50 [47] was 16.4 µM. The TGI [47] was 33.4 µM, the GI50 [48] was 16.5 µM and the TGI [48] was 59.3 µM. For the same compound, the GI50 [49] was 22.5 µM, the TGI [49] was 68.5 µM and the GI50 [50] was 27 µM. For the same compound, the TGI [50] was greater than 100 µM, the GI50 [51] was 11.5 µM and the TGI [51] was 33.8 µM. For the same compound, the GI50 [52] was 21.3 µM, the TGI [52] was greater than 100 µM and the GI50 [53] was 13.3 µM. It also gave a TGI [53] of 26.2 µM, a GI50 [54] of 16.2 µM and a TGI [54] of 30.2 µM. For the same compound, the GI50 [55] was 15.4 µM, the TGI [55] was 39.6 µM and the GI50 [56] was 20.8 µM. The TGI [56] was 46 µM, the GI50 [57] was 29.7 µM and the TGI [57] was greater than 100 µM. For the same compound, the GI50 [58] was 27.5 µM and the TGI [58] was greater than 100 µM.
